Assay results from paper PMC9813914, “Structural Basis for a Cork-Up Mechanism of the Intra-Molecular Mesaconyl-CoA Transferase” (Biochemistry, 2022).

Target: T1, Mct (mesaconyl-CoA transferase; mesaconyl-C1:C4-CoA CoA transferase) (Chloroflexus aurantiacus, UniProt A9WC36)
T1 construct: intertwined homodimer
T1 sequence (A9WC36 1-409): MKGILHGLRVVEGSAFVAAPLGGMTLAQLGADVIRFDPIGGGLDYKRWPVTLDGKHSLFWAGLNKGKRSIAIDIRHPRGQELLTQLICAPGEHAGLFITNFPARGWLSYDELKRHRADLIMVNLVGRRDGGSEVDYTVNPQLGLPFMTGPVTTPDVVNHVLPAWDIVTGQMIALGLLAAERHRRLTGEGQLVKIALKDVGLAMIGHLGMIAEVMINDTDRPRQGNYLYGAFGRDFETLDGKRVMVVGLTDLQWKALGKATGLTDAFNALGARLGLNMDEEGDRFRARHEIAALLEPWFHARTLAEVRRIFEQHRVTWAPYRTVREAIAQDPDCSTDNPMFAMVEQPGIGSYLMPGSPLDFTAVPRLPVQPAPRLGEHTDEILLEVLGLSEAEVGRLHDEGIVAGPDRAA
Assay: HPLC-MS of succinyl-CoA formation
Type: biochemical
Details: alternative CoA acceptor (side activity); co-substrate 1 mM mesaconyl-C4-CoA; 200 mM HEPES/KOH pH 8.0, 55 °C, 6 μM Mct; read-out: apparent KM

- Km: > 25 mM
Compound: O=C(O)CCC(=O)O [succinate]
